The values below come from paper PMC4159345, “PF-4708671 Activates AMPK Independently of p70S6K1 Inhibition” (PLoS ONE, 2014).

The target of experiment [1] is T1, mitochondrial respiratory chain Complex I.
T1 construct: gene Mtnd1; multi-subunit complex in mitochondria isolated from MEF
Nature of the experiment: spectrophotometric rotenone-sensitive NADH-CoQ reductase activity in isolated MEF mitochondria. The experiment is classed as biochemical, Mus musculus.

In experiment [2] the test system is T1, mitochondrial respiratory chain Complex I. Nature of the experiment: spectrophotometric NADH-CoQ reductase activity in isolated MEF mitochondria, single concentration of […]. The experiment is classed as biochemical, Mus musculus.

For orientation: IC50 means the concentration that inhibits the measured activity by half. High values mean weaker potency in that assay, low ones greater potency in that assay. `CCc1cncnc1N1CCN(Cc2nc3cc(C(F)(F)F)ccc3[nH]2)CC1` [PF-4708671] returned an IC50 in experiment [1] of 5.2 µM. In the case of `CN(C)C(=N)N=C(N)N` [metformin], the “spectrophotometric NADH-CoQ reductase activity in isolated MEF mitochondria, sin” value in experiment [2] was found to be 5 mM.
